Where two headings read alike, the source gives them in different places.
Experiments:
[1] = test system: HEK293 cells (ATCC CRL-1573); test: Cellular growth inhibition assay, HEK293 cells (Example 16); type: cell-based; conditions: Homo sapiens, 72 hours, CellTiter-Glo 2.0
Experimental: (§1) Exemplary compounds were tested for ability to inhibit the proliferation of HEK293 cells (ATCC CRL-1573) and HeLa cells (ATCC CCL-2).
(§2) HEK293 and HeLa cells were cultured in DMEM (Gibco 11995), supplemented with 10% Heat-inactivated FBS (Gibco A38400-01) and 1% Penicillin/Streptomycin (Gibco 15140-122) at 37° C. with 5% CO2 in a humidified tissue culture incubator. Cells were seeded at 500 cells/well in 384-well, Poly-D-lysine-treated blackplates (Perkin Elmer 6007710) in 25 μL media lacking selection for 18-24 hours. Plates were spun at 300 g for 30 seconds and stored in the incubator overnight. After 24 hours, a 25 μL aliquot of compound-containing medium was added in each well, at a final top concentration of 10 μM test compound, with 3-fold dilutions, using DMSO alone as a negative control. Plates were then spun at 300×g for 3 minutes again and cultured at 37° C. with 5% CO2. After 72 hours, cell viability was quantified with CellTiter-Glo 2.0 (Promega). After equilibrating cell plates at room temperature for 30 minutes, 25 μL CellTiter-Glo 2.0 reagent was dispensed into each well. Plates were mixed on a shaker for 2 minutes at 500 rpm, followed by a 10-minute incubation at room temperature. Luminescence readings were measured with an EnVision Plate Reader (Perkin Elmer). Data was normalized to DMSO treated cell wells. A four-parameter non-linear regression curve fit was applied to dose-response data in Prism to determine the half maximal growth inhibitory concentration (GI50) of each compound.

[2] = target: T1, EGFR WT (amino acids 669-1011) (Homo sapiens, UniProt P00533); test: KdELECT binding assay, EGFR WT
T1 construct: purchased Eurofins Discovery (KdELECT); host or cells: bacteria (E. coli BL21-derived, T7 phage)
T1 sequence (P00533 669-1011): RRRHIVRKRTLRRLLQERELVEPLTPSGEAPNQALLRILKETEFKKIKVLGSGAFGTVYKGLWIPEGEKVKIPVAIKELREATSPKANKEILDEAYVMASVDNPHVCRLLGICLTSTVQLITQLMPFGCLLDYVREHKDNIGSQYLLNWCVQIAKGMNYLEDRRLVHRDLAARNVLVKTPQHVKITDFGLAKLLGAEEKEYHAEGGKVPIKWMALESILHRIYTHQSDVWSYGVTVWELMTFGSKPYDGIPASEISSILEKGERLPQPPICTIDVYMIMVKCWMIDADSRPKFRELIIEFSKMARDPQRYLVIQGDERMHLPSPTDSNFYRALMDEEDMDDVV
Experimental: (§3) Exemplary compounds were tested for ability to bind to EGFR WT (amino acids 669-1011, Accession Number NP_005219.2) or EGFR T790M, L858R (amino acids 669-1011 Accession Number NP_005219.2) expressed from bacteria or mammalian cells, respectively. Compounds were tested using the KdELECT assay at Eurofins Discovery.
(§4) Kinase-tagged T7 phage strains were prepared in an E. coli host derived from the BL21 strain. E. coli were grown to log-phase and infected with T7 phage and incubated with shaking at 32° C. until lysis. The lysates were centrifuged and filtered to remove cell debris. The remaining kinases were produced in HEK-293 cells and subsequently tagged with DNA for qPCR detection. Streptavidin-coated magnetic beads were treated with biotinylated small molecule ligands for 30 minutes at room temperature to generate affinity resins for kinase assays. The liganded beads were blocked with excess biotin and washed with blocking buffer (SeaBlock (Pierce), 1% BSA, 0.05% Tween 20, 1 mM DTT) to remove unbound ligand and to reduce non-specific binding. Binding reactions were assembled by combining kinases, liganded affinity beads, and test compounds in 1x binding buffer (20% SeaBlock, 0.17× PBS, 0.05% Tween 20, 6 mM DTT). Test compounds were prepared as 111× stocks in 100% DMSO. Kd values were determined using an 11-point 3-fold compound dilution series with three DMSO control points. All compounds for Kd measurements are distributed by acoustic transfer (non-contact dispensing) in 100% DMSO. The compounds were then diluted directly into the assays such that the final concentration of DMSO was 0.9%. All reactions performed in polypropylene 384-well plate. Each was a final volume of 0.02 mL. The assay plates were incubated at room temperature with shaking for 1 hour and the affinity beads were washed with wash buffer (1× PBS, 0.05% Tween 20). The beads were then re-suspended in elution buffer (1× PBS, 0.05% Tween 20, 0.5 μM nonbiotinylated affinity ligand) and incubated at room temperature with shaking for 30 minutes. The kinase concentration in the eluates was measured by qPCR.

GSPT1 = target: T2, GSPT1 (Homo sapiens, UniProt P15170+Q96SW2); test: GSPT1 HiBiT degradation assay; type: cell-based; conditions: HEK293 LgBiT GSPT1 HiBiT cells, 6 hours
T2 construct: host or cells: HEK293 LgBiT / GSPT1 HiBiT CRISPR knock-in
T2 sequence (P15170 whole entry): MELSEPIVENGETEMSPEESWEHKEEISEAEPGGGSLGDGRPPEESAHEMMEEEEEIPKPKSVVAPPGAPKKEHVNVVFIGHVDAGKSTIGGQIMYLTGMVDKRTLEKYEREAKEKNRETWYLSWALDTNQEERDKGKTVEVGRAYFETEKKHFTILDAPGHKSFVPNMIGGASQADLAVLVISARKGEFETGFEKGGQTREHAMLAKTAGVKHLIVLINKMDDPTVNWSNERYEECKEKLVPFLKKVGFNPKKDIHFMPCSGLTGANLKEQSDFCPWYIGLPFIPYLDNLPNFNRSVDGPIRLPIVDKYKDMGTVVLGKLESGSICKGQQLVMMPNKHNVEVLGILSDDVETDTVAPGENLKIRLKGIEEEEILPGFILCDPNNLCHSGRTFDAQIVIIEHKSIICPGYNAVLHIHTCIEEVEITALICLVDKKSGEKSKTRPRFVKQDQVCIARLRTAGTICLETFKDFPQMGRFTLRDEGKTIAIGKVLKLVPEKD
T2 sequence (Q96SW2 whole entry): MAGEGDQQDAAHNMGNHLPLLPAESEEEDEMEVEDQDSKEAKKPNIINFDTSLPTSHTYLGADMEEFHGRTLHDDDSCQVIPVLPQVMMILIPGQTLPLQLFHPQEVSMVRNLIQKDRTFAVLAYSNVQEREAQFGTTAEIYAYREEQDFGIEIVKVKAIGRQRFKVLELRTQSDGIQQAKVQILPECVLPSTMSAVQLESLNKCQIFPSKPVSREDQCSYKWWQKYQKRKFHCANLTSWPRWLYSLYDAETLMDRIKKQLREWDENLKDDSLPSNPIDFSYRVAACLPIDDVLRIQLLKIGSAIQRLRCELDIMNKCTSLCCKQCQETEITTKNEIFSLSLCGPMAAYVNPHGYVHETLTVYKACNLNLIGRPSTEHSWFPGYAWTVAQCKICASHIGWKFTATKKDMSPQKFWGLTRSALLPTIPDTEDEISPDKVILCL
T2 sequence (Q16531 whole entry partner): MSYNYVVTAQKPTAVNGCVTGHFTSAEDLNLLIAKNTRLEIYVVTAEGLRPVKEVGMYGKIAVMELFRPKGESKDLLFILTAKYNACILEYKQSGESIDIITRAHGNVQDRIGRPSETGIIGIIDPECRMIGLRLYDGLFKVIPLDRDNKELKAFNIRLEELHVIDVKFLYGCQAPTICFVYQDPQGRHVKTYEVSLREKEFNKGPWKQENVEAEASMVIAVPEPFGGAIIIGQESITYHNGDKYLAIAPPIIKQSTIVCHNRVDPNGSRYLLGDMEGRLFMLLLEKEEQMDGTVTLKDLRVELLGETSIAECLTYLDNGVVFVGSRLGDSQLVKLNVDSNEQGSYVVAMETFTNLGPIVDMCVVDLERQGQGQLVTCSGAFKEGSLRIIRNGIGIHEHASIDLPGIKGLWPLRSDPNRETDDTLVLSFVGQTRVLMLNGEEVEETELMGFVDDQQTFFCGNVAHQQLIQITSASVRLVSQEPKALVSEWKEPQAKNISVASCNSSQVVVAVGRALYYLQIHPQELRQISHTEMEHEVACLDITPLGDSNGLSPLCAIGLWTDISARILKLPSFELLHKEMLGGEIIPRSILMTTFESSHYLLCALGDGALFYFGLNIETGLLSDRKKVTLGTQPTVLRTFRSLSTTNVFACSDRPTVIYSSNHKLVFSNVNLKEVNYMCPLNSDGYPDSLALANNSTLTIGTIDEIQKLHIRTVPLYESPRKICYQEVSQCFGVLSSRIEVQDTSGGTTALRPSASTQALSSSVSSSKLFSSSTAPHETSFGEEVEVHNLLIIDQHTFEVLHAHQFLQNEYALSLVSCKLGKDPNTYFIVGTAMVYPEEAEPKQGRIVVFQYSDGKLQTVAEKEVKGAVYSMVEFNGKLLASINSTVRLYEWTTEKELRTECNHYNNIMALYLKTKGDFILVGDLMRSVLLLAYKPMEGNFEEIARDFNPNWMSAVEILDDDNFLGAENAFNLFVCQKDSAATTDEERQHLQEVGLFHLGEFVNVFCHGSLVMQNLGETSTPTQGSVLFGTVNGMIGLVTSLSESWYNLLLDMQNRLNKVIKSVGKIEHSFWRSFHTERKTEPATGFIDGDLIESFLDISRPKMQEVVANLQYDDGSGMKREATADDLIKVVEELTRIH
Excerpt: Promega developed a HEK293 cell line that constitutively expresses LgBiT protein and GSPT1_HiBiT fusion protein. When both proteins are present, the HiBiT portion of the fusion protein combines with LgBiT protein to form a functional luciferase enzyme. Endurazine, a cell permeable small molecule, is converted by cellular esterases into furimazine, which the luciferase enzyme uses as a substrate to generate luminescence. When GSPT1 is degraded, the HiBit is also degraded. This prevents formation of fully functional luciferase, leading to a loss in luminescence. GSPT1 degradation therefore correlates with a decrease in luminescence and can be measured continuously over time. The concentration of compound at which 50% GSPT1 degradation occurs (DC50) may be calculated using this system.
HEK293 LgBiTGSPT1 HiBiT CRISPR Knock-in cells were cultured in DMEM Media supplemented with 10% Heat-inactivated FBS, 1% Penicillin/Streptomycin, 200 μg/mL hygromycin and stored in a humidified incubator set at 37° C. and 5% CO2. 18-24 hours prior to compound treatment, cells were seeded at 1000 cells/well in a 384-well tissue culture-treated white plates in 25 μL media lacking selection for 18-24 hours. The plates were spun at 300 g for 30 seconds and stored in the incubator overnight. After 24 hours, compounds are titrated in DMSO and added to media supplemented with endurazine substrate. A 25 μL aliquot of 2× compound/endurazine in media is then added to the 384-well microplate with seeded cells. (Endurazine is used at a final concentration of 0.5×). The plate was spun at 300 g for 30 seconds and stored in the incubator. After 6 hours, the plate was read on a Perkin Elmer MultiMode Plate Reader Envision 2105 to measure luminescence signal. Data were plotted in Prism (Graphpad) and the concentration of compound at which 50% GSPT1 degradation occurs (DC50) was calculated.

[3] = target: T3, EGFR T790M, L858R (amino acids 669-1011) (Homo sapiens, UniProt P00533, L858R/T790M); test: KdELECT binding assay, EGFR T790M, L858R
T3 construct: purchased Eurofins Discovery (KdELECT); host or cells: mammalian cells (HEK-293)
T3 sequence (P00533 669-1011 T790M/L858R): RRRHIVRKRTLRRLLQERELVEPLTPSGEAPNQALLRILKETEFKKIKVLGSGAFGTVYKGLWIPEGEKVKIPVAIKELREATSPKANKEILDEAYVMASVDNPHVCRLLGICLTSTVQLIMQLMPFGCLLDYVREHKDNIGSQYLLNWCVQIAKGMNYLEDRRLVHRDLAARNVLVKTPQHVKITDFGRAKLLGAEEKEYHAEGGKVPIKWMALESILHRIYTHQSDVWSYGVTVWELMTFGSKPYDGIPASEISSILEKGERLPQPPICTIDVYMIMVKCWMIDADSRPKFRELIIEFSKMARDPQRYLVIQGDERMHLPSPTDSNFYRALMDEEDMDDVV
Experimental: as §3, §4

HeLa cells (ATCC CCL-2) = test: Cellular growth inhibition assay, HeLa cells (Example 16); type: cell-based; conditions: Homo sapiens, 72 hours, CellTiter-Glo 2.0
Experimental: as §1, §2

[4] = target: T4, EGFR T790M/L858R kinase domain (Homo sapiens, UniProt P00533, L858R/T790M); test: EGFR cellular target engagement assay (HEK293 cells stable for EGFR T790M, L858R); type: cell-based; conditions: 6 hours, read-out: TE50 (the source's name)
T4 construct: EGFR (amino acids 696-1022, T790M, L858R); expressed in transfected cells; host or cells: HEK293, lentiviral transduction, puromycin selection
T4 sequence (P00533 696-1022 T790M/L858R): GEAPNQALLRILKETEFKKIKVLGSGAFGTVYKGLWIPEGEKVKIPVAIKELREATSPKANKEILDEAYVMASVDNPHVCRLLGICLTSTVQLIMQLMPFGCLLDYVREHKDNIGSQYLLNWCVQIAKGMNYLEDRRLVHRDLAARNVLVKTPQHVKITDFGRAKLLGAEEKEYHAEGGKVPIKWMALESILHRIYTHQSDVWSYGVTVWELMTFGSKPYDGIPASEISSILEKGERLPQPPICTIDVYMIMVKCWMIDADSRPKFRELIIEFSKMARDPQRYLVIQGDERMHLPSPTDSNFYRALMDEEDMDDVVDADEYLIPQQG
Experimental: HEK293 cells were cultured in DMEM (Gibco 11995), supplemented with 10% Heat-inactivated FBS (Gibco A38400-01) and 1% Penicillin/Streptomycin (Gibco 15140-122) at 37° C. with 5% CO2 in a humidified tissue culture incubator. Cells were made stable for EGFR (amino acids 696-1022, T790M, L858R) by lentiviral transduction, followed by selection with 1 μg/ml Puromycin Dihydrochloride (Thermo A1113803). Cells were seeded at 30,000 cells/ml in 0.1 ml of complete media in Poly-D-lysine-treated 96-well plates and incubated overnight. Cells were treated with increasing concentrations of compound and let incubate at 37C and 5% CO2 for 6 hours, after which media was aspirated, washed with 1×PBS and cells were lysed in RIPA Lysis and Extraction Buffer (Thermo 89901) supplemented with 5 mM MgCl2, Protease and Phosphatase inhibitor cocktail (Thermo 1861281), and Universal Nuclease (Thermo 88700). Plates with RIPA were shaken at 4° C. at 600 rpm for 15 min. After shaking samples, they were collected and spun down at 21,000 g for 15 min at 4° C. Following centrifugation, […] of lysate was added to Laemmli Sample Buffer (Bio-Rad 1610747) plus 10% beta-mercaptoethanol, boiled for 15 minutes at 65° C. and loaded onto 4-20% Mini-PROTEAN TGX™ Precast Protein Gels (Bio-Rad). Protein was transferred to a nitrocellulose membrane (Thermo LC2000) using the iBlot 2 Dry Blotting System (Thermo). After transfer, membranes were washed in 1× TBST (Bioland Scientific LLC TBST0103) 3× for 5 min. Following the wash, blocking buffer (Rockland MB-070) was added for 1 hour at room temperature. Primary antibodies against EGFR (Cell Signaling Technology 3197) and actin (Cell Signaling Technology 3700S) were added overnight at 4° C. Membranes were then washed again 3× for 5 min in 1× TBST. Secondary antibodies (LI-COR 926-68072 and 926-68073) were added and shaken for 1 hr at room temperature. Membranes were then washed 3× for 5 min in 1×TBST and developed. Membranes were placed on an Odyssey imager (LI-COR).

CCNK = test: Payload release assay (DC50 readout), CCNK degradation in the presence of recombinant target protein; type: cell-based; conditions: II-series and V-4 (CCNK readout inferred)
Experimental: Exemplary compounds were tested for ability to cause degradation of CCNK or GSPT1 in the presence of recombinant target protein.
HEK293 LgBiT/GSPT1 HiBiT CRISPR Knock-in cells (Promega) were cultured in DMEM (Gibco 11995), supplemented with 10% Heat-inactivated FBS (Gibco A38400-01) and 1% Penicillin/Streptomycin (Gibco 15140-122) and 200 Vg/ml Hygromycin B (Gibco 10-687-010) at 37° C. with 5% CO2 in a humidified tissue culture incubator. HEK293 LgBiT/CCNK HiBiT cells (in-house, described above) were cultured in DMEM (Gibco 11995), supplemented with 10% Heat-inactivated FBS (Gibco A38400-01) and 1% Penicillin/Streptomycin (Gibco 15140-122) 200 Vg/ml Hygromycin B (Gibco 10-687-010), and 1 Vg/ml Puromycin Dihydrochloride (Thermo A1113803) at 37° C. with 5% CO2 in a humidified tissue culture incubator. Cells were seeded (1000 cells/well for HEK293 LgBiT/GSPT1 HiBiT cells or 3000 cells/well for HEK293 LgBiT/CCNK HiBiT cells) 384-well, tissue culture-treated white plates (Perkin Elmer 6007680) in 10 μL media lacking selection for 18-24 hours. Plates were spun at 300 g for 30 seconds and stored in the incubator overnight. After 24 hours, a 5 μL aliquot of recombinant target protein (final concentration of either 5 μM KRAS amino acids 1-169, C51S, C80L, C118S, G12C or 3 μM EGFR amino acids 696-1022 or 3 μM EGFR amino acids 696-1022, T790M, L858R) was added to wells, followed immediately by a 5 μL aliquot of 4× compound-containing medium supplemented with Endurazine Substrate (Promega N2570) was added in each well, at a final top concentration of 10 μM test compound and 0.5× Endurazine, with 4-fold dilutions, using DMSO alone as a negative control. Plates were then spun at 300×g for 3 minutes again and cultured at 37° C. with 5% CO2. After 6 hours the plate was read on Envision MultiMode Plate Reader 2105 (Perkin Elmer) to measure luminescence signal. Data was normalized to DMSO treated cell wells. A four-parameter non-linear regression curve fit was applied to dose-response data in Prism to determine the half maximal growth inhibitory concentration (GI50) of each compound.

Row | SMILES | GI50 [1] [µM] | Kd [2] [µM] | DC50 (GSPT1) [µM] | Kd [3] [µM] | GI50 (HeLa cells (ATCC CCL-2)) [µM] | EC50 [4] [µM] | DC50 (CCNK; 0 μM recombinant EGFR T790M L858R, read-out: DC50 at 0 μM EGFR T790M L858R) [µM] | DC50 (CCNK; 0 μM recombinant EGFR WT, read-out: DC50 at 0 μM EGFR WT) [µM]
1 | C=C(CN(C(=O)NCc1ccc2c(c1)CN(C1CCC(=O)NC1=O)C2=O)c1ccc(C)c(Cl)c1)C(=O)N[C@@H]1CN(c2nc(Nc3cn(C)nc3OC)c3ncn(C)c3n2)C[C@H]1F (stereo partly drawn) [Compound I-41] | 1.5 to 10 | > 2.5 | > 2.5 | > 2.5 | > 10 | > 10 |  | 
2 | C=C(Cn1c(CNc2nc(N3CCN(C)CC3)nc3c(Br)cnn23)nc2c(F)c(F)ccc21)C(=O)N[C@@H]1CN(c2nc(Nc3cn(C)nc3OC)c3ncn(C)c3n2)C[C@H]1F [II-182] | 1.5 to 10 | > 2.5 |  | > 2.5 | 1.5 to 10 |  | 5 to 10 | 5 to 10
